According to patent US20230233569A1 (Revolution Medicines, Inc., priority 2020, published 2023):
Like-named read-outs stand apart in the source and are kept apart here.

How the values were obtained:
Assay in all cases: Ras-Raf disruption / FRET / MOA assay (BRAF RBD)
Type in all cases: biochemical
KRAS G12C = KRAS G12C (Homo sapiens, UniProt P01116+P62937, G12C); conditions: with Cyclophilin A
Method in brief: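 His6-K-Ras G12C-GMPPNP (12.5 nM), GST-BRAF RBD (50 nM) and tagless Cyclophilin A (25 μM) incubated 3 h at 25 °C with compound (10-point 3-fold series from 30 μM), pH 7.3 HEPES buffer. Anti-His Eu/anti-GST APC added for 1.5 h; decreased TR-FRET ratio vs DMSO gives IC50.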

NRAS G12C = NRAS G12C (Homo sapiens, UniProt P01111+P62937, G12C)
Sequence of NRAS G12C (P01111 whole entry G12C): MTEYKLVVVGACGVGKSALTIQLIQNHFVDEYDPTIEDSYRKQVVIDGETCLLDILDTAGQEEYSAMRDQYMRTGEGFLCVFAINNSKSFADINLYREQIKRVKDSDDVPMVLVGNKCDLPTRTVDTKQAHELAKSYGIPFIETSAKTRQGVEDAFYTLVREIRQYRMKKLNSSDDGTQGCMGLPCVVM
Sequence of NRAS G12C (P62937 whole entry): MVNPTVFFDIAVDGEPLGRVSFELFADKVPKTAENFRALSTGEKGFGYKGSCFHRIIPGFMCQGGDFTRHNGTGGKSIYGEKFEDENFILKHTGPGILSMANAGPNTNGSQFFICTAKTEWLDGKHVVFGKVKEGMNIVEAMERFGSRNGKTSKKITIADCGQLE
Method in brief: (§1)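 TR-FRET in 25 mM HEPES pH 7.3, 100 mM NaCl, 5 mM MgCl2, 0.1% BSA, 0.002% Tween20 with 25 μM Cyclophilin A, 12.5 nM His6-Ras-GMPPNP, 50 nM GST-BRAF RBD; compound 10-point 3-fold series from 30 μM. After 3 h at 25 °C, Eu anti-His/APC anti-GST added for 1.5 h; IC50 from ratio decrease versus DMSO.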

KRAS G12V = KRAS G12V (Homo sapiens, UniProt P01116+P62937, G12V); conditions: with Cyclophilin A
Sequence of KRAS G12V (P01116 1-169 isoform P01116-2 G12V limits assumed): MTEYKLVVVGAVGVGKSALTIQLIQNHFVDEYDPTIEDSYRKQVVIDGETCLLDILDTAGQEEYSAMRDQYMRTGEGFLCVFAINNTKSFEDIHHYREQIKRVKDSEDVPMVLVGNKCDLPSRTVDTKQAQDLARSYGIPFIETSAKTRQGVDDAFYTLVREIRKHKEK
Sequence of KRAS G12V (P62937 whole entry): as the sequence (P62937 whole entry) above
Method in brief: as §1

KRAS WT = KRAS WT (Homo sapiens, UniProt P01116+P62937); conditions: with Cyclophilin A
Sequence of KRAS WT (P01116 1-169 isoform P01116-2 limits assumed): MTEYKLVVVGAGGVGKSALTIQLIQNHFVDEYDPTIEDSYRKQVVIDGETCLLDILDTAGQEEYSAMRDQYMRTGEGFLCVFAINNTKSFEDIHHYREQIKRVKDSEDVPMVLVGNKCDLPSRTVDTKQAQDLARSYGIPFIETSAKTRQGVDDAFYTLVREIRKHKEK
Sequence of KRAS WT (P62937 whole entry): as the sequence (P62937 whole entry) above
Method in brief: as §1

KRAS G13D = KRAS G13D (Homo sapiens, UniProt P01116+P62937, G13D); conditions: with Cyclophilin A
Sequence of KRAS G13D (P01116 1-169 isoform P01116-2 G13D limits assumed): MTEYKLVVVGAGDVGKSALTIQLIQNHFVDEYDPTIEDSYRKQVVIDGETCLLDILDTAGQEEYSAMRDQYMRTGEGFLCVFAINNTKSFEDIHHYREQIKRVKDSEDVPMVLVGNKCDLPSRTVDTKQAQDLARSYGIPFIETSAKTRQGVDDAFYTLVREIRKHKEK
Sequence of KRAS G13D (P62937 whole entry): as the sequence (P62937 whole entry) above
Method in brief: as §1

KRAS G12D = KRAS G12D (Homo sapiens, UniProt P01116+P62937, G12D); conditions: with Cyclophilin A
Sequence of KRAS G12D (P01116 1-169 isoform P01116-2 G12D limits assumed): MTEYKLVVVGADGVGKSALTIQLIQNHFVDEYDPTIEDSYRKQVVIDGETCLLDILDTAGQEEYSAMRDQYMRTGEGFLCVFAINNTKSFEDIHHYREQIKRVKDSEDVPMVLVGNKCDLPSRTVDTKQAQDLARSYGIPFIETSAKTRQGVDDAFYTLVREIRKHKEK
Sequence of KRAS G12D (P62937 whole entry): as the sequence (P62937 whole entry) above
Method in brief: as §1

KRAS G13C = KRAS G13C (Homo sapiens, UniProt P01116+P62937, G13C); conditions: with Cyclophilin A
Sequence of KRAS G13C (P01116 1-169 isoform P01116-2 G13C limits assumed): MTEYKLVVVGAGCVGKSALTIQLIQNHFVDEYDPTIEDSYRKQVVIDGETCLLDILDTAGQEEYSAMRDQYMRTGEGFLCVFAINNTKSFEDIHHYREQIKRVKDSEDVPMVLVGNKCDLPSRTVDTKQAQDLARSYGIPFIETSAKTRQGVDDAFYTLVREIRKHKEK
Sequence of KRAS G13C (P62937 whole entry): as the sequence (P62937 whole entry) above
Method in brief: as §1

KRAS G12S = KRAS G12S (Homo sapiens, UniProt P01116+P62937, G12S); conditions: with Cyclophilin A
Sequence of KRAS G12S (P01116 1-169 isoform P01116-2 G12S limits assumed): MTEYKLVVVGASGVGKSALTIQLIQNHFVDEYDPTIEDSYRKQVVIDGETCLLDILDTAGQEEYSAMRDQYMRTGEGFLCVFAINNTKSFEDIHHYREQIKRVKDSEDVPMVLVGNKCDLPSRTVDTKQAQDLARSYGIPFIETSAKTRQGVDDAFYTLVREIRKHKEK
Sequence of KRAS G12S (P62937 whole entry): as the sequence (P62937 whole entry) above
Method in brief: as §1

[1] = KRAS G12C FRET data IC50, Ras-Raf disruption
[2] = NRAS G12C FRET data IC50, NRAS G12C
[3] = KRAS G12V FRET data IC50, Ras-Raf disruption
[4] = KRAS WT FRET data IC50, Ras-Raf disruption
[5] = KRAS G13D FRET data IC50, Ras-Raf disruption
[6] = KRAS G12D FRET data IC50, Ras-Raf disruption
[7] = KRAS G13C FRET data IC50, Ras-Raf disruption
[8] = KRAS G12S FRET data IC50, Ras-Raf disruption
[9] = Ras-Raf disruption, read-out: KRAS G12C FRET data IC50
[10] = NRAS G12C, read-out: NRAS G12C FRET data IC50
[11] = Ras-Raf disruption, read-out: KRAS G12V FRET data IC50
[12] = Ras-Raf disruption, read-out: KRAS WT FRET data IC50
[13] = Ras-Raf disruption, read-out: KRAS G13D FRET data IC50
[14] = Ras-Raf disruption, read-out: KRAS G12D FRET data IC50
[15] = Ras-Raf disruption, read-out: KRAS G13C FRET data IC50
[16] = Ras-Raf disruption, read-out: KRAS G12S FRET data IC50

Measured: IC50

Sequence of KRAS G12C (P01116 1-169 isoform P01116-2 G12C limits assumed): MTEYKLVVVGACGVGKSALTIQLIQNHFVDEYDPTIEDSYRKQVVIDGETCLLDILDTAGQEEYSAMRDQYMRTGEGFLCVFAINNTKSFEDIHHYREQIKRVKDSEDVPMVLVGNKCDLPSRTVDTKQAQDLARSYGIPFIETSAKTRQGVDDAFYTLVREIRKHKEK
Sequence of KRAS G12C (P62937 whole entry): as the sequence (P62937 whole entry) above

CCn1c(-c2cccnc2[C@H](C)OC)c2c3cc(ccc31)-c1csc(n1)C[C@H](NC(=O)[C@H](C1CCCC1)N(C)C(=O)CN(C)C(=O)[C@H]1CN1)C(=O)N1CCC[C@H](N1)C(=O)OCC(C)(C)C2 [Example 132]
1 to 10 µM: KRAS G12V; [3] | KRAS WT; [4] | KRAS G13D; [5] | KRAS G12D; [6] | KRAS G13C; [7] | KRAS G12S; [8]
0.1 to 1 µM: KRAS G12C; [1] | NRAS G12C; [2]

CCn1c(-c2cccnc2[C@H](C)OC)c2c3cc(ccc31)-c1cc(O)cc(c1)C[C@H](NC(=O)[C@H](C(C)C)N1CC[C@@]3(CCN(C[C@@H]4CN4)C3)C1=O)C(=O)N1CCC[C@H](N1)C(=O)OCC(C)(C)C2 [Example 138]
0.1 to 1 µM: KRAS G12D; [14] | KRAS G12S; [16]
1 to 10 µM: KRAS G12V; [11]
0.01 to 0.1 µM: KRAS G12C; [9] | KRAS WT; [12] | KRAS G13D; [13] | KRAS G13C; [15]
< 0.01 µM: NRAS G12C; [10]

CCn1c(-c2cccnc2[C@H](C)OC)c2c3cc(ccc31)-c1cc(O)cc(c1)C[C@H](NC(=O)[C@H](C(C)C)N(C)C(=O)N1CCN(C(=O)[C@H]3CN3)C(=O)C1)C(=O)N1CCC[C@H](N1)C(=O)OCC(C)(C)C2 [Example 143]
0.1 to 1 µM: KRAS G12V; [11] | KRAS G12D; [14]
0.01 to 0.1 µM: KRAS G12C; [9] | NRAS G12C; [10] | KRAS WT; [12] | KRAS G13D; [13] | KRAS G13C; [15] | KRAS G12S; [16]

CCn1c(-c2cccnc2[C@H](C)OC)c2c3cc(ccc31)-c1cc(O)cc(c1)C[C@H](NC(=O)[C@H](C(C)C)N(C)C(=O)c1ccc([C@H]3CN3)cc1)C(=O)N1CCC[C@H](N1)C(=O)OCC(C)(C)C2 [Example 145]
0.1 to 1 µM: KRAS G12C; [9] | NRAS G12C; [10] | KRAS G12V; [11] | KRAS WT; [12] | KRAS G13D; [13] | KRAS G12S; [16]
0.01 to 0.1 µM: KRAS G13C; [15]
1 to 10 µM: KRAS G12D; [14]

CCn1c(-c2cccnc2[C@H](C)OC)c2c3cc(ccc31)-c1cc(O)cc(c1)C[C@H](NC(=O)[C@H](C(C)C)N1CC[C@]3(CCN(C(=O)[C@H]4CN4)C3)C1=O)C(=O)N1CCC[C@H](N1)C(=O)OCC(C)(C)C2 [Example 146]
0.01 to 0.1 µM: KRAS G12V; [11] | KRAS WT; [12] | KRAS G12D; [14] | KRAS G13C; [15] | KRAS G12S; [16]
0.1 to 1 µM: KRAS G13D; [13]
< 0.01 µM: KRAS G12C; [9] | NRAS G12C; [10]

CCn1c(-c2cccnc2[C@H](C)OC)c2c3cc(ccc31)-c1cc(O)cc(c1)C[C@H](NC(=O)[C@H](C(C)C)N1CC[C@@]3(CCN(C(=O)[C@H]4CN4)C3)C1=O)C(=O)N1CCC[C@H](N1)C(=O)OCC(C)(C)C2 [Example 149]
0.1 to 1 µM: KRAS G12D; [14]
< 0.01 µM: KRAS G12C; [9] | NRAS G12C; [10]
0.01 to 0.1 µM: KRAS G12V; [11] | KRAS WT; [12] | KRAS G13D; [13] | KRAS G13C; [15] | KRAS G12S; [16]

CCn1c(-c2cccnc2[C@H](C)OC)c2c3cc(ccc31)-c1cc(O)cc(c1)C[C@H](NC(=O)[C@H](C(C)C)N(C)C(=O)[C@H]1CCN1C(=O)[C@@H]1CN1)C(=O)N1CCC[C@H](N1)C(=O)OCC(C)(C)C2 [Example 157]
0.1 to 1 µM: KRAS G12D; [6]
0.01 to 0.1 µM: KRAS G12C; [1] | NRAS G12C; [2] | KRAS G12V; [3] | KRAS WT; [4] | KRAS G13D; [5] | KRAS G13C; [7] | KRAS G12S; [8]

CCn1c(-c2cccnc2[C@H](C)OC)c2c3cc(ccc31)-c1cc(O)cc(c1)C[C@H](NC(=O)[C@H](C(C)C)N(C)C(=O)[C@H]1CCN1C(=O)[C@H]1CN1)C(=O)N1CCC[C@H](N1)C(=O)OCC(C)(C)C2 [Example 158]
0.1 to 1 µM: KRAS G12D; [6]
0.01 to 0.1 µM: KRAS G12C; [1] | NRAS G12C; [2] | KRAS G12V; [3] | KRAS WT; [4] | KRAS G13D; [5] | KRAS G13C; [7] | KRAS G12S; [8]

CCn1c(-c2cccnc2[C@H](C)OC)c2c3cc(ccc31)-c1csc(n1)C[C@H](NC(=O)[C@H](C(C)C)N(C)C(=O)N1CCN(C(=O)[C@@H]3CN3)CC1)C(=O)N1CCC[C@H](N1)C(=O)OCC(C)(C)C2 [Example 168]
0.01 to 0.1 µM: KRAS G12C; [9] | NRAS G12C; [10] | KRAS WT; [12] | KRAS G12S; [16]
0.1 to 1 µM: KRAS G12V; [11] | KRAS G13D; [13] | KRAS G12D; [14] | KRAS G13C; [15]

CCn1c(-c2cccnc2[C@H](C)OC)c2c3cc(ccc31)-c1csc(n1)C[C@H](NC(=O)[C@H](C(C)C)N(C)C(=O)N1CCN(C(=O)[C@H]3CN3)CC1)C(=O)N1CCC[C@H](N1)C(=O)OCC(C)(C)C2 [Example 169]
0.1 to 1 µM: KRAS G12V; [11] | KRAS G13D; [13] | KRAS G12D; [14]
0.01 to 0.1 µM: KRAS G12C; [9] | NRAS G12C; [10] | KRAS WT; [12] | KRAS G13C; [15] | KRAS G12S; [16]

CCn1c(-c2cccnc2[C@H](C)OC)c2c3cc(ccc31)-c1cc(O)cc(c1)C[C@H](NC(=O)[C@H](C(C)C)N(C)C(=O)[C@@]1(F)CCN(C(=O)[C@H]3CN3)C1)C(=O)N1CCC[C@H](N1)C(=O)OCC(C)(C)C2 [Example 171]
0.01 to 0.1 µM: KRAS G12V; [11] | KRAS WT; [12] | KRAS G13D; [13] | KRAS G12D; [14] | KRAS G13C; [15] | KRAS G12S; [16]
< 0.01 µM: KRAS G12C; [9] | NRAS G12C; [10]

CCn1c(-c2cccnc2[C@H](C)OC)c2c3cc(ccc31)-c1cc(O)cc(c1)C[C@H](NC(=O)[C@H](C(C)C)N(C)C(=O)[C@@H]1CCN(C(=O)[C@@H]3CN3)C1)C(=O)N1CCC[C@H](N1)C(=O)OCC(C)(C)C2 [Example 172]
0.1 to 1 µM: KRAS G12D; [14]
0.01 to 0.1 µM: KRAS G12C; [9] | NRAS G12C; [10] | KRAS G12V; [11] | KRAS WT; [12] | KRAS G13D; [13] | KRAS G13C; [15] | KRAS G12S; [16]

CCn1c(-c2cccnc2[C@H](C)OC)c2c3cc(ccc31)-c1cc(O)cc(c1)C[C@H](NC(=O)[C@H](C(C)C)N(C)C(=O)N1CCCN(C(=O)[C@@H]3CN3)CC1)C(=O)N1CCC[C@H](N1)C(=O)OCC(C)(C)C2 [Example 173]
0.01 to 0.1 µM: KRAS G12C; [9] | NRAS G12C; [10] | KRAS G12V; [11] | KRAS WT; [12] | KRAS G13D; [13] | KRAS G12D; [14] | KRAS G13C; [15] | KRAS G12S; [16]

CCn1c(-c2cccnc2[C@H](C)OC)c2c3cc(ccc31)-c1cc(O)cc(c1)C[C@H](NC(=O)[C@H](C1CCCC1)N1CC[C@@]3(CCN(C(=O)[C@H]4CN4)C3)C1=O)C(=O)N1CCC[C@H](N1)C(=O)OCC(C)(C)C2 [Example 174]
0.01 to 0.1 µM: KRAS G12V; [11] | KRAS WT; [12] | KRAS G13D; [13] | KRAS G13C; [15] | KRAS G12S; [16]
0.1 to 1 µM: KRAS G12D; [14]
< 0.01 µM: KRAS G12C; [9] | NRAS G12C; [10]
